Structures can show the parent of a compound that is named as a salt.
biological target: T1, human V1a receptor (Homo sapiens, UniProt P37288); assay: human V1a receptor binding (3H-Vasopressin SPA, HEK293 membranes); settings: displacement of 4 nM 3H-Vasopressin, membranes of HEK293 cells transiently transfected with human V1a receptor; Ki from IC50 by Cheng-Prussoff
T1 construct: expressed in transfected cells; host or cells: HEK293 cells, transiently transfected; cell membranes
How it was run: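 Ki derived by Cheng-Prusoff from IC50 curves normalised to specific binding. Serially diluted compounds (in 2% DMSO) competed with 3H-vasopressin (4 nM working solution) for 1 h at room temperature on SPA beads bearing membranes of transiently transfected HEK293 cells; unlabelled vasopressin defined non-specific counts.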

T1 sequence (P37288 whole entry): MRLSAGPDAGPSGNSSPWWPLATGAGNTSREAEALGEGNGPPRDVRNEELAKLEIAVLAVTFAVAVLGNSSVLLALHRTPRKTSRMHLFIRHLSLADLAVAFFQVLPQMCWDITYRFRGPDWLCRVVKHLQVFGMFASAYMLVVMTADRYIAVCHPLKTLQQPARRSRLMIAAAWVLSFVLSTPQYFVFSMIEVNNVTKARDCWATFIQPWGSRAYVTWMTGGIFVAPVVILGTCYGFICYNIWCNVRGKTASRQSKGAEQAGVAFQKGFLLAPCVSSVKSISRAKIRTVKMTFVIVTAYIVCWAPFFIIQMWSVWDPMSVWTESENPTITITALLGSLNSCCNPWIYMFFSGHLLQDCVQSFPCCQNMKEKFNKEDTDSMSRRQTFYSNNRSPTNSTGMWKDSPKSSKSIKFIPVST

In order of rising Ki:
1. CN(C)C(=O)Cn1cc(C(=O)N2CCC3(CC2)OCc2ccccc23)c2ccc(Cl)cc21 [Example 206, 2-[6-Chloro-3-(1′H,3H-spiro[2-benzofuran-1,4′-piperidin]-1′-ylcarbonyl)-1H-indol-1-yl]-N,N-dimethylacetamide]  0.5 nM
2. O=C1OC2(CCN(C(=O)c3cn(Cc4cc(F)cc(F)c4)c4cc(Cl)ccc34)CC2)c2ccc(F)cc21 [Example 142, 1′-{[6-Chloro-1-(3,5-difluorobenzyl)-1H-indol-3-yl]carbonyl}-5-fluoro-3H-spiro[2-benzofuran-1,4′-piperidin]-3-one]  0.6 nM
3. O=C(c1cn(Cc2cccc(F)c2)c2cc(Cl)ccc12)N1CCC2(CC1)OCc1ccccc12 [Example 220]  1 nM
4. CN(C)CCn1cc(C(=O)N2CCC3(CC2)OCc2ccccc23)c2ccc(Cl)cc21 [Example 210, 2-[6-Chloro-3-(1′H,3H-spiro[2-benzofuran-1,4′-piperidin]-1′-ylcarbonyl)-1H-indol-1-yl]-N,N-dimethylethanamine]  1 nM
5. O=C(Cn1cc(C(=O)N2CCC3(CC2)OC(=O)c2ccccc23)c2ccc(Cl)cc21)c1ccc(F)c(F)c1 [Example 154, 1′-({6-Chloro-1-[2-(3,4-difluorophenyl)-2-oxoethyl]-1H-indol-3-yl}carbonyl)-3H-spiro[2-benzofuran-1,4′-piperidin]-3-one]  1.3 nM
6. CCN(CC)C(=O)Cn1cc(C(=O)N2CCC3(CC2)OC(=O)c2ccccc23)c2ccc(Cl)cc21 [Example 107, 2-{6-Chloro-3-[(3-oxo-1′H,3H-spiro[2-benzofuran-1,4′-piperidin]-1′-yl)carbonyl]-1H-indol-1-yl}-N,N-diethylacetamide]  1.3 nM
7. 1′-({6-Chloro-1-[(2S)-pyrrolidin-2-ylmethyl]-1H-indol-3-yl}carbonyl)-3H-spiro[2-benzofuran-1,4′-piperidine [Example 267]  1.4 nM
8. O=C(c1cn(CC2(F)COC2)c2cc(Cl)ccc12)N1CCC2(CC1)OCc1ccccc12 [Example 243, 1′-({6-Chloro-1-[(3-fluorooxetan-3-yl)methyl]-1H-indol-3-yl}carbonyl)-3H-spiro[2-benzofuran-1,4′-piperidine]]  1.4 nM
9. O=C(Cn1cc(C(=O)N2CCC3(CC2)OC(=O)c2cc(F)ccc23)c2ccc(Cl)cc21)c1ccccn1 [Example 169, 1′-{[6-Chloro-1-(2-oxo-2-pyridin-2-ylethyl)-1H-indol-3-yl]carbonyl}-5-fluoro-3H-spiro[2-benzofuran-1,4′-piperidin]-3-one]  1.5 nM
10. CN1CCC(Cn2cc(C(=O)N3CCC4(CC3)OCc3ccccc34)c3ccc(Cl)cc32)C1 (centres unmarked) [Example 264, 1′-({6-Chloro-1-[(1-methylpyrrolidin-3-yl)methyl]-1H-indol-3-yl}carbonyl)-3H-spiro[2-benzofuran-1,4′-piperidine]]  1.8 nM
11. O=C1OC2(CCN(C(=O)c3cn(CCC4CCOCC4)c4cc(Cl)ccc34)CC2)c2ccc(F)cc21 [Example 195, 1′-({6-Chloro-1-[2-(tetrahydro-2H-pyran-4-yl)ethyl]-1H-indol-3-yl}carbonyl)-5-fluoro-3H-spiro[2-benzofuran-1,4′-piperidin]-3-one hydrochloride]  2.1 nM
12. Cc1oc(-c2ccccc2)nc1C(=O)Cn1cc(C(=O)N2CCC3(CC2)OC(=O)c2cc(F)ccc23)c2ccc(Cl)cc21 [Example 170, 1′-({6-Chloro-1-[2-(5-methyl-2-phenyl-1,3-oxazol-4-yl)-2-oxoethyl]-1H-indol-3-yl}carbonyl)-5-fluoro-3H-spiro[2-benzofuran-1,4′-piperidin]-3-one]  2.2 nM
13. O=C1OC2(CCN(C(=O)c3cn(Cc4ccncc4)c4cc(Cl)ccc34)CC2)c2ccc(F)cc21 [Example 166, 1′-{[6-Chloro-1-(pyridin-4-ylmethyl)-1H-indol-3-yl]carbonyl}-5-fluoro-3H-spiro[2-benzofuran-1,4′-piperidin]-3-one]  2.4 nM
14. COCC1(Cn2cc(C(=O)N3CCC4(CC3)OC(=O)c3cc(F)ccc34)c3ccc(Cl)cc32)CC1 [Example 190, 1′-[(6-Chloro-1-{[1-(methoxymethyl)cyclopropyl]methyl}-1H-indol-3-yl)carbonyl]-5-fluoro-3H-spiro[2-benzofuran-1,4′-piperidin]-3-one]  2.6 nM
15. O=C(c1cn(CCO)c2cc(Cl)ccc12)N1CCC2(CC1)OCc1ccccc12 [Example 259, 2-[6-Chloro-3-(1′H,3H-spiro[2-benzofuran-1,4′-piperidin]-1′-ylcarbonyl)-1H-indol-1-yl]ethanol]  2.6 nM
16. O=C1OC2(CCN(C(=O)c3cn(-c4cc(F)cc(F)c4)c4cc(Cl)ccc34)CC2)c2ccccc21 [Example 127, 1′-{[6-Chloro-1-(3,5-difluorophenyl)-1H-indol-3-yl]carbonyl}-3H-spiro[2-benzofuran-1,4′-piperidin]-3-one]  3 nM
17. CC(C)(C)OC(=O)N1CCOC(Cn2cc(C(=O)N3CCC4(CC3)OC(=O)c3ccccc34)c3ccc(Cl)cc32)C1 (centres unmarked) [Example 197, tert-Butyl 2-({6-chloro-3-[(3-oxo-1′H,3H-spiro[2-benzofuran-1,4′-piperidin]-1′-yl)carbonyl]-1H-indol-1-yl}methyl)morpholine-4-carboxylate]  3 nM
18. O=C(Cn1cc(C(=O)N2CCC3(CC2)OC(=O)c2ccccc23)c2ccc(Cl)cc21)c1cc(F)ccc1F [Example 136, 1′-({6-Chloro-1-[2-(2,5-difluorophenyl)-2-oxoethyl]-1H-indol-3-yl]carbonyl)-3H-spiro[2-benzofuran-1,4′-piperidin]-3-one]  3 nM
19. O=C1OC2(CCN(C(=O)c3cn(CC4CNCCO4)c4cc(Cl)ccc34)CC2)c2ccccc21 (centres unmarked) [Example 198, 1′-{[6-Chloro-1-(morpholin-2-ylmethyl)-1H-indol-3-yl]carbonyl}-3H-spiro[2-benzofuran-1,4′-piperidin]-3-one hydrochloride]  3.3 nM
20. COc1ccc2c(c1)C1(CCN(C(=O)c3c(C)n(Cc4ccccc4)c4ccccc34)CC1)OC2=O [Example 12, 1′-[(1-benzyl-2-methyl-1H-indol-3-yl)carbonyl]-6-methoxy-3H-spiro[2-benzofuran-1,4′-piperidin]-3-one]  3.4 nM
21. O=C(Cn1cc(C(=O)N2CCC3(CC2)COc2ccccc23)c2ccc(Cl)cc21)N1CCCCC1 [Example 87, 1′-{[6-chloro-1-(2-oxo-2-piperidin-1-ylethyl)-1H-indol-3-yl]carbonyl}spiro[1-benzofuran-3,4′-piperidine]]  3.5 nM
22. O=C(c1cn(C(=O)c2cc(F)cc(F)c2)c2cc(Cl)ccc12)N1CCC2(CC1)OCc1ccccc12 [Example 216]  3.5 nM
23. Cc1nc(Cn2cc(C(=O)N3CCC4(CC3)OCc3ccccc34)c3ccc(Cl)cc32)c(C2CC2)o1 [Example 237]  4 nM
24. O=C(c1cn(C(=O)c2cccc(F)c2)c2cc(Cl)ccc12)N1CCC2(CC1)OCc1ccccc12 [Example 214]  5.1 nM
25. O=C(c1cn(C(=O)c2cccc(F)c2F)c2cc(Cl)ccc12)N1CCC2(CC1)OCc1ccccc12 [Example 217]  5.8 nM
26. Cc1c(C(=O)N2CCC3(CC2)OCc2ccccc23)c2ccccc2n1Cc1ccc(C#N)cc1 [Example 51, 4-{[2-methyl-3-(1′H,3H-spiro[2-benzofuran-1,4′-piperidin]-1′-ylcarbonyl)-1H-indol-1-yl]methyl}benzonitrile]  5.9 nM
27. O=C1OC2(CCN(C(=O)c3cn(CC4CN(Cc5ccccc5)CCO4)c4cc(Cl)ccc34)CC2)c2ccc(F)cc21 (centres unmarked) [Example 177, 1′-({1-[(4-Benzylmorpholin-2-yl)methyl]-6-chloro-1H-indol-3-yl}carbonyl)-5-fluoro-3H-spiro[2-benzofuran-1,4′-piperidin]-3-one]  6.9 nM
28. O=C(c1c[nH]c2cc(Cl)c(F)cc12)N1CCC2(CC1)COc1ccccc12 [Example 80, 1′-[(6-chloro-5-fluoro-1H-indol-3-yl)carbonyl]spiro[1-benzofuran-3,4′-piperidine]]  7.4 nM
29. O=C1OC2(CCN(C(=O)c3cn(-c4ccccn4)c4cc(Cl)ccc34)CC2)c2ccccc21 [Example 159, 1-[(6-Chloro-1-pyridin-2-yl-1H-indol-3-yl)carbonyl]-3H-spiro[2-benzofuran-1,4′-piperidin]-3-one]  7.6 nM
30. O=C(c1cn(CCn2cccc2)c2cc(Cl)ccc12)N1CCC2(CC1)COc1ccccc12 [Example 86, 1′-({6-chloro-1-[2-(1H-pyrrol-1-yl)ethyl]-1H-indol-3-yl}carbonyl)spiro[1-benzofuran-3,4′-piperidine]]  13.2 nM
31. O=C(c1c2n(c3ccccc13)CCNC2)N1CCC2(CC1)OCc1ccccc12 [Example 275, 1′-(1,2,3,4-Tetrahydropyrazino[1,2-a]indol-10-ylcarbonyl)-3H-spiro[2-benzofuran-1,4′-piperidine]hydrochloride]  15.7 nM
32. CC(C)(C)OC(=O)N1CCn2c(c(C(=O)N3CCC4(CC3)OCc3ccccc34)c3ccccc32)C1 [Example 274, tert-Butyl 10-(1′H,3H-spiro[2-benzofuran-1,4′-piperidin]-1′-ylcarbonyl)-3,4-dihydropyrazino[1,2-a]indole-2(1H)-carboxylate]  25.1 nM
33. CC1CCN(C(=O)c2[nH]c3cc(Cl)ccc3c2C(=O)N2CCC3(CC2)OC(=O)c2cc(F)ccc23)CC1 [Example 24, 1′-({6-chloro-2-[(4-methylpiperidin-1-yl)carbonyl]-1H-indol-3-yl}carbonyl)-5-fluoro-3H-spiro[2-benzofuran-1,4′-piperidin]-3-one]  33.1 nM
34. O=C1OC2(CCN(C(=O)c3cn(C(=O)c4cccc(-c5ccccc5)c4)c4cc(Cl)ccc34)CC2)c2ccccc21 [Example 158, 1′-{[1-(Biphenyl-3-ylcarbonyl)-6-chloro-1H-indol-3-yl]carbonyl}-3H-spiro[2-benzofuran-1,4′-piperidin]-3-one]  38.7 nM
35. O=C(c1c[nH]c2cc(Cl)ccc12)N1CCC2(CC1)NCc1ccccc12 [Example 284, 1′-[(6-Chloro-1H-indol-3-yl)carbonyl]-2,3-dihydrospiro[isoindole-1,4′-piperidine]]  138 nM
